Data taken from patent US5068198A, “Liquid single reagent for assays involving confining gels” (Syntex (U.S.A.) Inc., priority 1989, dated 1991).
Read-outs that look alike come from different tables or passages of the source.

Columns and labels:
Anti-digoxin [1] = test system: Anti-digoxin
Protocol: Reagent: Digoxin-G6PDH encapsulated
in liposomes (POPC 70%, POPG
Anti-digoxin optimized for
response, 0.13M G6P, RSA (20
Diluent: 0.5% Triton, 4 mM NAD, 5mM
Protocol: 50 μl of the reagent was drawn up into a diluter and dispensed with 200 μl of buffer containing RSA (1 mg/ml) into a 1 ml Croan cup. A 50 μl aliquot of the sample was drawn up and dispersed with 700 μl of diluent into the Croan cup. Immediately after sample addition, the entire sample was aspirated into a flow cell and readings were taken at 30° over thirty seconds.

Anti-digoxin [2] = test system: Anti-digoxin; remark: listed apart in the source
Source text: As a comparison to the assay using a single liquid reagent an assay was run using unencapsulated enzyme conjugate and antibody in separate liquid reagents. The reagent quantities and the final volume of the assay were arranged to be identical to those in the single reagent assay above in Example 3.

[3] = test system: monoclonal anti-theophylline; assay: Assay for theophylline using encapsulated Theophylline-G6PDH as a single liquid reagent; type: biochemical
Experimental: Theophylline-G6PDH was encapsulated in liposomes (POPC 76%, POPG 4%, and cholesterol 20%) and used in an assay for theophylline. The assay employed the following reagents:
Protocol 0.3 ml of the Reagent dispensed into a Croan cup.

G6PDH = assay: Inhibition of G6PDH by encapsulated and free Anti-G6PDH, with or without Triton; type: biochemical; conditions: Triton 5%; in words
Experimental: Anti-G6PDH was encapsulated in liposome. The liposome composition was L-α-dioleoyl lecithin (70%) and L-α-dioleoyl phosphatidyl glycerol (30%).
Enzyme: G6PDH, dissolved in buffer
Free Antibody: Anti-G6PDH, in buffer
Substrate: 0.13M G6P, 0.08M NAD, and
Protocol: 50 μl of enzyme (270 ng) was mixed with 50 μl of free or encapsulated antibody and 0.6 ml Buffer containing (1 mg/ml) with or without 5% Triton. After one hour at ambient temperature, 50 μl of substrate was added together with 0.3 ml buffer.

[4] = digoxin 0.083 μg/ml, 30°, thirty seconds

In the case of `C[C@H]1O[C@@H](O[C@H]2[C@@H](O)C[C@H](O[C@H]3[C@@H](O)C[C@H](O[C@H]4CC[C@@]5(C)[C@H](CC[C@@H]6[C@@H]5C[C@@H](O)[C@]5(C)[C@@H](C7=CC(=O)OC7)CC[C@]65O)C4)O[C@@H]3C)O[C@@H]2C)C[C@H](O)[C@@H]1O` [Digoxin, digoxin], the “enzyme activity, Single Reagent” value (Anti-digoxin [1]; [4]) is reported as 403 EU, the “enzyme activity, Single Reagent” value (Anti-digoxin [1]; digoxin 0.166 μg/ml) is reported as 440 EU and the “enzyme activity, Single Reagent” value (Anti-digoxin [1]; digoxin 0.333 μg/ml) is reported as 511 EU. The “enzyme activity, Single Reagent” value (Anti-digoxin [1]; digoxin 0.666 μg/ml) was 584 EU, the “enzyme activity, Single Reagent” value (Anti-digoxin [1]; digoxin 1.33 μg/ml) was 628 EU and the “enzyme activity, Single Reagent” value (Anti-digoxin [1]; digoxin 2.66 μg/ml) was 653 EU. The “enzyme activity, Single Reagent” value (Anti-digoxin [1]; digoxin 10.65 μg/ml) was 665 EU, the “enzyme activity, Two Reagent” value (Anti-digoxin [2]; [4]) was 410 EU and the “enzyme activity, Two Reagent” value (Anti-digoxin [2]; digoxin 0.166 μg/ml) was 456 EU. The “enzyme activity, Two Reagent” value (Anti-digoxin [2]; digoxin 0.333 μg/ml) was 518 EU, the “enzyme activity, Two Reagent” value (Anti-digoxin [2]; digoxin 0.666 μg/ml) was 603 EU and the “enzyme activity, Two Reagent” value (Anti-digoxin [2]; digoxin 1.33 μg/ml) was 645 EU. For the same compound, the “enzyme activity, Two Reagent” value (Anti-digoxin [2]; digoxin 2.66 μg/ml) was 678 EU, the “enzyme activity, Two Reagent” value (Anti-digoxin [2]; digoxin 5.33 μg/ml) was 713 EU and the “enzyme activity, Two Reagent” value (Anti-digoxin [2]; digoxin 10.65 μg/ml) was 717 EU.
With `Cn1c(=O)c2[nH]cnc2n(C)c1=O` [Theophylline, theophylline] the “enzyme activity, Single Reagent” value ([3]; theophylline 2.5 μg/ml, 30°, thirty second read) was 356 Eu, the “enzyme activity, Single Reagent” value ([3]; theophylline 5 μg/ml) was 394 Eu and the “enzyme activity, Single Reagent” value ([3]; theophylline 10 μg/ml) was 455 Eu. For the same compound, the “enzyme activity, Single Reagent” value ([3]; theophylline 20 μg/ml) was 537 Eu and the “enzyme activity, Single Reagent” value ([3]; theophylline 40 μg/ml) was 610 Eu.
Triton was tested, and the “effect of Triton on enzyme activity or extent of inhibition in enzyme by antibody” value (G6PDH) was “did not affect”.
